Assay results published in US20240041806A1, “Eyedrops for Inhibiting Myopia Progression in Children and Screening Method for Inhibitor of Myopia Progression in Children” (Tsubota Laboratory, Inc., priority 2020, published 2024).
“Also recorded” adds a separate entry of the source. Where two headings read alike, the source gives them in different places.

Legend:
[1] = system: myopia-induced juvenile mouse; assay: Lens-induced myopia (-30 D lens) in juvenile mouse: axial length (SD-OCT) and refraction; assay type: in vivo, mouse (C57BL6J); conditions: for axial elongation of myopia-induced eye / myopic refraction of myopia-induced eye / axial elongation of control eye in which myopia had not been induced: eyedrop once a day for 10 days, 60 μM STF, 100 μM other inhibitors; for axial elongation of myopia-induced eye / myopic refraction of myopia-induced eye: -30 D lens eye; for axial elongation of control eye in which myopia had not been induced: compared with DMSO eyedrop
[2] = system: endoplasmic reticulum stress response genes (PERK pathway and ATF6 pathway) in the sclera; conditions: FIG. 8
Protocol: A solution of sodium phenylbutyrate in PBS (4-PBA; 200 mg/kg) or tauroursodeoxycholic acid (TUDCA; 100 mg/kg) was intraperitoneally injected (i.p.) every day during the myopia induction period. Quantitative real-time PCR was performed using StepOnePlus Realtime PCR system with PowerUp SYBR Green Master Mix (Applied Biosystems, CA, USA). Expression level was standardized using β-actin. FIG. 8 illustrates change in gene expression obtained after intraperitoneal injection of 4-PBA every day through the myopia induction period. […] Besides, FIG. 10 illustrates axial elongation (a) and refraction change (b) obtained by eyedrop administration of 0.2% or 2% 4-PBA to a mouse during myopia induction. FIG. 11 illustrates axial elongation (b) and refraction change (a) obtained by intraperitoneal injection of TUDCA every day over the myopia induction period.

[3] = system: lens of myopia-induced juvenile mouse; conditions: -30 D lens wearing group
Protocol: It was examined whether or not a difference in the dosage form of 4-PBA affects the change in the lens. In accordance with the description given above in “Experimental Method”, 4-PBA was eye-dropped or intraperitoneally administered to a myopia-induced juvenile mouse, and the thickness of the lens was measured with SD-OCT in the same manner as in the measurement of the axial length.

[4] = eyedrop administration of 2% 4-PBA as printed, 1st and 3rd weeks, FIG. 9

Cc1cc(=O)oc2c(C=O)c(O)ccc12 [4μ8C]
axial elongation of myopia-induced eye [1]: neither axial elongation nor myopic refraction was inhibited | myopic refraction of myopia-induced eye [1]: neither axial elongation nor myopic refraction was inhibited

O=C(Nc1cnn(Cc2ccc(C(F)(F)F)cc2C(F)(F)F)c1)c1cc(-c2ccco2)on1 [Ceapin-A7]
axial elongation of myopia-induced eye [1]: neither axial elongation nor myopic refraction was inhibited | myopic refraction of myopia-induced eye [1]: neither axial elongation nor myopic refraction was inhibited | axial elongation of control eye in which myopia had not been induced [1]: the eye axis of the control eye also elongated

Cn1cc(-c2ccc3c(c2)CCN3C(=O)Cc2cccc(C(F)(F)F)c2)c2c(N)ncnc21 [GSK2606414]
axial elongation of myopia-induced eye [1]: neither axial elongation nor myopic refraction was inhibited | myopic refraction of myopia-induced eye [1]: neither axial elongation nor myopic refraction was inhibited | axial elongation of control eye in which myopia had not been induced [1]: the eye axis of the control eye also elongated

Sodium phenylbutyrate [4-PBA]
expression of endoplasmic reticulum stress response genes in sclera of myopia induced eyes ([2]; 4-PBA 200 mg/kg/day intraperitoneal vs PBS): the increase is inhibited | expression of genes disposed downstream of the PERK pathway and the ATF6 pathway ([2]; eyedrop administration of 2% 4-PBA as printed): significantly inhibited | axial elongation, dose dependence ([1]; eyedrop administration of 0.2% or 2% 4-PBA during myopia induction, FIG. 10(a)): dose-dependent effectiveness was found; also recorded: inhibits axial elongation dose-dependently | myopic refraction, dose dependence ([1]; eyedrop administration of 0.2% or 2% 4-PBA during myopia induction, FIG. 10(b)): dose-dependent effectiveness was found; also recorded: inhibits myopic refraction dose-dependently | axial elongation [1, 4]: significantly inhibited to the same extent | myopic refraction [1, 4]: significantly inhibited to the same extent | axial elongation ([1]; intraperitoneal 4-PBA 200 mg/kg/day, 1st week and 3rd week of myopia induction (LIM), FIG. 9(a)): the axial elongation is inhibited | myopic refraction ([1]; intraperitoneal 4-PBA 200 mg/kg/day, 1st week and 3rd week of myopia induction (LIM), FIG. 9(b)): the myopic refraction is inhibited | lens thickening caused by myopia induction (LIM) ([3]; eyedrop administration of 4-PBA, FIG. 14(B)): lens thickening was not caused | lens thickening caused by myopia induction (LIM) ([3]; intraperitoneal administration of 4-PBA, FIG. 14(A)): did not affect lens thickening

C[C@H](CCC(=O)NCCS(=O)(=O)O)[C@H]1CC[C@H]2[C@@H]3[C@@H](O)C[C@@H]4C[C@H](O)CC[C@]4(C)[C@H]3CC[C@]12C [TUDCA, tauroursodeoxycholic acid]
physiological axial elongation ([1]; intraperitoneal TUDCA 100 mg/kg every day during myopia induction, FIG. 11): did not inhibit physiological axial elongation | myopic refraction ([1]; intraperitoneal TUDCA 100 mg/kg every day during myopia induction, FIG. 11(a)): myopic refraction is inhibited | axial elongation (pathologic axial elongation) ([1]; intraperitoneal TUDCA 100 mg/kg every day during myopia induction, FIG. 11(b)): inhibited pathologic axial elongation; also recorded: axial elongation is inhibited
